Tested on: MV4-11 cells
Test: In vitro proliferation (Cell Titer Glo, 6 days) of Compound 51 in combination with gilteritinib, midostaurin or decitabine, MV4-11
Type: cell-based
Design: key to Synergy/antagonism call (maxR test), MV4-11 Cell Proliferation: synergy is indicated by “**”; antagonism is indicated by “*”; no asterisk: absence of any asterisk indicates an additive effect
Details: for combination effect on proliferation (cytotoxicity): 6-day CellTiter-Glo matrix
Procedure: 3) In Vitro Proliferation—Menin-MLL Inhibitor in Combination with FLT3 Inhibitor (Gilteritinib or Midostaurin), DNA Intercalating Agent (Idarubicin) or Hypomethylating Agent (Decitabine)
The effect of Compound 51 in combination with gilteritinib, midostaurin, idarubicin or decitabine was determined in proliferation assays.
AML cell lines MOLM-13, OCI-AML3 and MV4-11 were purchased from DSMZ. MOLM-13 were grown in RPMI medium supplemented with 10% Fetal Bovine Serum (FBS) and 1% penicillin/streptomycin. MV4-11 cells were grown in IMDM medium supplemented with 10% FBS and 1% penicillin/streptomycin. OCI-AML3 cells were cultured in 80-90% alpha-MEM (with or without ribo- and deoxyribonucleosides)+10-20% FBS. All cell lines were cultured at 37° C. in 5% CO2 atmosphere.
AML cell lines (10-20×10^3 cells/well) were seeded in 96-well plates and grown for 6 days in serum (10%)-containing medium in the presence or absence of inhibitors at the indicated concentrations. Proliferation was analyzed by means of a Cell Titer Glo assay using the […] (Promega, Madison, WI, USA), according to the manufacturer's instructions. Data are mean with standard deviation from two to four independent experiments in technical triplicates.
R-based Biochemically Intuitive Generalized Loewe (BIGL) model implemented with a highest single agent (HSA) null model. Specifically, the BIGL methodology was applied to calculate drug-drug interactions (Van der Borght, K., Tourny, A., Bagdziunas, R. et al. BIGL: Biochemically Intuitive Generalized Loewe null model for prediction of the expected combined effect compatible with partial agonism and antagonism. Sci Rep 7, 17935 (2017); Thas, O., Tourny, A., Verbist, B., Hawinkel, S., Nazarov, M., Mutambanengwe, K., & Bijnens, L. Statistical detection of synergy: New methods and a comparative study. Pharmaceutical Statistics (2021)).
Synergy matrix results of the BIGL analysis of the cell line data with HSA as mean model calculated on the basis of the cellular metabolic activity using Cell Titer-Glo assay. Bootstrap confidence intervals are indicated. Effect sizes and their confidence intervals are shown. […] No significant average effect if zero is included in the interval.

[1] = Compound 51 0.1 μm + Decitabine 0.15 μM
[2] = Compound 51 0.1 μm + Decitabine 1.5 μM

For `CC(=O)N1CCC(CN2CC[C@@H](Cc3cn(-c4ccc(F)cc4C(=O)N(C)C(C)C)c4cncc(C)c34)C2)CC1` [Compound 51], the “Effect size (BIGL, HSA null model), MV4-11 Cell Proliferation” value (from here on “Effect size (BIGL, HSA null model)”) (Compound 51 0.05 μm + Gilteritinib 0.3 μM) was −0.02, the “Effect size (BIGL, HSA null model)” value (Compound 51 0.05 μm + Gilteritinib 1 μM) was −0.02 and the “Effect size (BIGL, HSA null model)” value (Compound 51 0.05 μm + Midostaurin 0.0012 μM) was −0.02. For the same compound, the “Effect size (BIGL, HSA null model)” value (Compound 51 0.05 μm + Midostaurin 0.006 μM) was −0.07, the “Effect size (BIGL, HSA null model)” value (Compound 51 0.05 μm + Midostaurin 0.025 μM) was −0.14 and the “Effect size (BIGL, HSA null model)” value (Compound 51 0.05 μm + Midostaurin 0.05 μM) was −0.13. The “Effect size (BIGL, HSA null model)” value (Compound 51 0.05 μm + Midostaurin 0.1 μM) was −0.04, the “Effect size (BIGL, HSA null model)” value (Compound 51 0.05 μm + Midostaurin 0.5 μM) was 0.03 and the “Effect size (BIGL, HSA null model)” value (Compound 51 0.1 μm + Decitabine 0.0015 μM) was 0.01. For the same compound, the “Effect size (BIGL, HSA null model)” value (Compound 51 0.1 μm + Decitabine 0.035 μM) was −0.04, the “Effect size (BIGL, HSA null model)” value [1] was −0.09 and the “Synergy/antagonism call (maxR test), MV4-11 Cell Proliferation” value [1] was “**”. For the same compound, the “Effect size (BIGL, HSA null model)” value [2] was −0.11, the “Synergy/antagonism call (maxR test), MV4-11 Cell Proliferation” value [2] was “**” and the “Effect size (BIGL, HSA null model)” value (Compound 51 0.1 μm + Decitabine 3 μM) was −0.06. The “Effect size (BIGL, HSA null model)” value (Compound 51 0.1 μm + Gilteritinib 0.0005 μM) was −0.07, the “Effect size (BIGL, HSA null model)” value (Compound 51 0.1 μm + Gilteritinib 0.005 μM) was −0.03 and the “Effect size (BIGL, HSA null model)” value (Compound 51 0.1 μm + Gilteritinib 0.01 μM) was −0.02. For the same compound, the “Effect size (BIGL, HSA null model)” value (Compound 51 0.1 μm + Gilteritinib 0.05 μM) was −0.02, the “Effect size (BIGL, HSA null model)” value (Compound 51 0.1 μm + Gilteritinib 0.3 μM) was −0.02 and the “Effect size (BIGL, HSA null model)” value (Compound 51 0.1 μm + Gilteritinib 1 μM) was −0.02. For the same compound, the “Effect size (BIGL, HSA null model)” value (Compound 51 0.1 μm + Midostaurin 0.0012 μM) was −0.03, the “Effect size (BIGL, HSA null model)” value (Compound 51 0.1 μm + Midostaurin 0.006 μM) was −0.06 and the “Effect size (BIGL, HSA null model)” value (Compound 51 0.1 μm + Midostaurin 0.025 μM) was −0.08. The “Effect size (BIGL, HSA null model)” value (Compound 51 0.1 μm + Midostaurin 0.05 μM) was −0.09, the “Effect size (BIGL, HSA null model)” value (Compound 51 0.1 μm + Midostaurin 0.1 μM) was −0.04 and the “Effect size (BIGL, HSA null model)” value (Compound 51 0.1 μm + Midostaurin 0.5 μM) was 0.03. The “Effect size (BIGL, HSA null model)” value (Compound 51 0.5 μm + Decitabine 0.0015 μM) was 0, the “Effect size (BIGL, HSA null model)” value (Compound 51 0.5 μm + Decitabine 0.035 μM) was −0.01 and the “Effect size (BIGL, HSA null model)” value (Compound 51 0.5 μm + Decitabine 0.15 μM) was −0.02. The “Effect size (BIGL, HSA null model)” value (Compound 51 0.5 μm + Gilteritinib 0.0005 μM) was −0.02, the “Effect size (BIGL, HSA null model)” value (Compound 51 0.5 μm + Gilteritinib 0.005 μM) was −0.03 and the “Effect size (BIGL, HSA null model)” value (Compound 51 0.5 μm + Gilteritinib 0.01 μM) was −0.02. The “Effect size (BIGL, HSA null model)” value (Compound 51 0.5 μm + Gilteritinib 0.05 μM) was −0.02, the “Effect size (BIGL, HSA null model)” value (Compound 51 0.5 μm + Gilteritinib 0.3 μM) was −0.02 and the “Effect size (BIGL, HSA null model)” value (Compound 51 0.5 μm + Gilteritinib 1 μM) was −0.02. The “Effect size (BIGL, HSA null model)” value (Compound 51 1 μm + Decitabine 0.0015 μM) was 0, the “Effect size (BIGL, HSA null model)” value (Compound 51 1 μm + Decitabine 0.035 μM) was −0.01 and the “Effect size (BIGL, HSA null model)” value (Compound 51 1 μm + Decitabine 0.15 μM) was −0.02. For the same compound, the “Effect size (BIGL, HSA null model)” value (Compound 51 1 μm + Decitabine 1.5 μM) was −0.03, the “Effect size (BIGL, HSA null model)” value (Compound 51 1 μm + Decitabine 3 μM) was −0.03 and the “Effect size (BIGL, HSA null model)” value (Compound 51 1 μm + Gilteritinib 0.0005 μM) was −0.02. The “Effect size (BIGL, HSA null model)” value (Compound 51 1 μm + Gilteritinib 0.005 μM) was −0.02, the “Effect size (BIGL, HSA null model)” value (Compound 51 1 μm + Gilteritinib 0.01 μM) was −0.02 and the “Effect size (BIGL, HSA null model)” value (Compound 51 1 μm + Gilteritinib 0.05 μM) was −0.02. For the same compound, the “Effect size (BIGL, HSA null model)” value (Compound 51 1 μm + Gilteritinib 0.3 μM) was −0.02, the “Effect size (BIGL, HSA null model)” value (Compound 51 1 μm + Gilteritinib 1 μM) was −0.02 and the “Effect size (BIGL, HSA null model)” value (Compound 51 1 μm + Midostaurin 0.0012 μM) was 0.02. For the same compound, the “Effect size (BIGL, HSA null model)” value (Compound 51 1 μm + Midostaurin 0.006 μM) was 0.01, the “Effect size (BIGL, HSA null model)” value (Compound 51 1 μm + Midostaurin 0.025 μM) was 0 and the “Effect size (BIGL, HSA null model)” value (Compound 51 1 μm + Midostaurin 0.05 μM) was 0. The “Effect size (BIGL, HSA null model)” value (Compound 51 1 μm + Midostaurin 0.1 μM) was 0, the “Effect size (BIGL, HSA null model)” value (Compound 51 1 μm + Midostaurin 0.5 μM) was 0.03 and the “combination effect on proliferation (cytotoxicity)” value (“combination effect … (cytotoxicity)” for short) (in combination with decitabine, MV4-11) was “synergistically cytotoxic”. The “combination effect on proliferation at low doses of gilteritinib” value (in combination with gilteritinib 10 nM, MV4-11) was “synergistic effect”, the “combination effect … (cytotoxicity)” value (in combination with gilteritinib, MV4-11) was “not antagonistically cytotoxic” and the “combination effect … (cytotoxicity)” value (in combination with midostaurin, MV4-11) was “not antagonistically cytotoxic”.
